Target: T1, LRRK2^KW (Homo sapiens, UniProt Q5S007)
T1 construct: Kinase and WD40 domain construct (KW)
Assay: not given
Parameters: Differential scanning fluorometry, thermal stabilization of LRRK2 KW by compound
Conditions: binder
Description: Next, we evaluated the potency and selectivity of these new compounds. We performed on-target screening by measuring the thermostability increase of LRRK2^KW in the presence of the new compounds using DSF (Supporting Information Table S2). We also determined the in vitro IC50 (median inhibitory concentration) values for each of the new compounds by purifying LRRK2^RCKW and measuring its kinase activity in the presence of our new inhibitors using the PhosphoSense® activity assay from AssayQuant (Supporting Information Table S2). Finally, we estimated the kinome selectivity of each compound by measuring the thermostability increase of approximately 100 representative kinases in the presence of the compounds via DSF (Supporting Information Table S2). […] Additionally, we screened a library of published type-II inhibitors to identify those that bind to LRRK2^KW (a Kinase and WD40 domain construct of LRRK2) with high affinity.

T1 sequence (Q5S007 whole entry, the tested form may be a part): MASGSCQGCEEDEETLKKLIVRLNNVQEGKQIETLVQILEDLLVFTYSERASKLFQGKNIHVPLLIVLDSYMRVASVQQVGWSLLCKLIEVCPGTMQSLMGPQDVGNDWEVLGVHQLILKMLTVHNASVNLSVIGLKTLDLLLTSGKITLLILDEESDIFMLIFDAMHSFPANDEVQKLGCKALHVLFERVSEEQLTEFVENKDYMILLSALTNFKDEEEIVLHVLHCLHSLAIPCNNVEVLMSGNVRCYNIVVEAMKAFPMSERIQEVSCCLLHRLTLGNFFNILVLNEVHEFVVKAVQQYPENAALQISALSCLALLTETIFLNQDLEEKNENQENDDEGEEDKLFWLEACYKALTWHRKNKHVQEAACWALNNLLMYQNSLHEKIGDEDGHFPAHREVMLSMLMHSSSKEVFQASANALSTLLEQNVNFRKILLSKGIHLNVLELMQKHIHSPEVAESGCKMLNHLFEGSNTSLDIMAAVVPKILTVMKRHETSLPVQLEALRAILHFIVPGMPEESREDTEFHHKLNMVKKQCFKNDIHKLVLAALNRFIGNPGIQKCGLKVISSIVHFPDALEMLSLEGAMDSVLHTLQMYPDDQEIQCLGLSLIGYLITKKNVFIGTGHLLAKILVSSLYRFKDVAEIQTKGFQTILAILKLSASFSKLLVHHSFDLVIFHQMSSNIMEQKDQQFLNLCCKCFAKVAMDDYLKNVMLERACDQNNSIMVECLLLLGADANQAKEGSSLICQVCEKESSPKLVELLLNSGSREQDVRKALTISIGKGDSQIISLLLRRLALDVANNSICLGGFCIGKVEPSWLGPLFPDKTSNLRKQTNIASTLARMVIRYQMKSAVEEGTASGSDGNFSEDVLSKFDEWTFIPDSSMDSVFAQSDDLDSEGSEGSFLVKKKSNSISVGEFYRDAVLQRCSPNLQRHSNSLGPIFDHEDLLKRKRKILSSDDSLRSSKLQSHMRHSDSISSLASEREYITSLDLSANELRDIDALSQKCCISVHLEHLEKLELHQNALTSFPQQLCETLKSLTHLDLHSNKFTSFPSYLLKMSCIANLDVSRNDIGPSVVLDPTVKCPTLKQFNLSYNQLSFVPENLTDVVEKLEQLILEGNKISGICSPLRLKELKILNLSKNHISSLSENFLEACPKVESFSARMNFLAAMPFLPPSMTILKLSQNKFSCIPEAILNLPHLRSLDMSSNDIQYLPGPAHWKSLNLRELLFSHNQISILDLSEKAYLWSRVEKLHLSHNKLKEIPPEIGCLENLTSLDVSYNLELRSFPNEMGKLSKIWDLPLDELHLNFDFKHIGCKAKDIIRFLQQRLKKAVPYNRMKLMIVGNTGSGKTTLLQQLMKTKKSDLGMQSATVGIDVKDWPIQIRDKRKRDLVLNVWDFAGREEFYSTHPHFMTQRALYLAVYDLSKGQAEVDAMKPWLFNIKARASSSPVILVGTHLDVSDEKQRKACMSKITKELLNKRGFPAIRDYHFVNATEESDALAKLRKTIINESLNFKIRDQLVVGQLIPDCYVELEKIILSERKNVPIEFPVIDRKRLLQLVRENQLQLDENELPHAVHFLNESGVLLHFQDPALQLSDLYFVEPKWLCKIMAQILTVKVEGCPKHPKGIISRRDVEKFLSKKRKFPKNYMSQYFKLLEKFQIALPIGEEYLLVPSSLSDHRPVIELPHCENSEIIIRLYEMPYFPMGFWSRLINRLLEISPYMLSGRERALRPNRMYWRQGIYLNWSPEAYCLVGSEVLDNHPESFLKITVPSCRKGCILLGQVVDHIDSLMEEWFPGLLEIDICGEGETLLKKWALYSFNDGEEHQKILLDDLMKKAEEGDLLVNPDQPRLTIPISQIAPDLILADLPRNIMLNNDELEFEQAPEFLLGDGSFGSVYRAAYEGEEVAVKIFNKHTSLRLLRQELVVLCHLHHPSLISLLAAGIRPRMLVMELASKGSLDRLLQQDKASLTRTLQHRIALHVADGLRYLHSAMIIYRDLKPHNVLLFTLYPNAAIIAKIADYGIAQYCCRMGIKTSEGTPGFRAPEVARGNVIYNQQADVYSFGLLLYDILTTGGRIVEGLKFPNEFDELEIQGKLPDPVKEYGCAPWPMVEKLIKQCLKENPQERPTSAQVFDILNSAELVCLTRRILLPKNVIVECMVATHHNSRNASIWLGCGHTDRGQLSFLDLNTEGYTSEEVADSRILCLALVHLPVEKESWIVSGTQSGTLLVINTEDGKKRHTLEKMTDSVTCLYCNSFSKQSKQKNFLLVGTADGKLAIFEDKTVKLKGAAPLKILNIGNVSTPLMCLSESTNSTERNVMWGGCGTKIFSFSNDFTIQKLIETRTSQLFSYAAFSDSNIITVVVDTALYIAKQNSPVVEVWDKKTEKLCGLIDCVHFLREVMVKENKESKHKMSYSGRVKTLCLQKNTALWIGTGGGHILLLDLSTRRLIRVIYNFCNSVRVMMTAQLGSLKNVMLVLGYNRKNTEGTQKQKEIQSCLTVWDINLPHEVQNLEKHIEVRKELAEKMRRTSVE

Row | SMILES | ΔTm [K]
1 | COc1cc(S(C)(=O)=O)ccc1Nc1nc(N(C)C)c2c(-c3cccc(NC(=O)Nc4cc(C(C)(C)C)nn4-c4ccc(C)cc4)c3)c[nH]c2n1 [compound 35, 1-(3-(tert-butyl)-1-(p-tolyl)-1H-pyrazol-5-yl)-3-(3-(4-(dimethylamino)-2-((2-methoxy-4-(methylsulfonyl)phenyl)amino)-7H-pyrrolo[2,3-d]pyrimidin-5-yl)phenyl)urea] | 1.0 K
2 | Cc1ccc(-n2nc(C(C)(C)C)cc2NC(=O)Nc2cccc(-c3c[nH]c4nc(Cl)nc(N5CCOCC5)c34)c2)cc1 [compound 30, RN277] | 18.0 K
3 | CCSc1nc(NC)c2c(-c3cccc(NC(=O)Nc4cc(C(C)(C)C)nn4-c4ccc(C)cc4)c3)c[nH]c2n1 [compound 32, RN341] | 19.9 K
4 | COc1cc(C(=O)N2CCOCC2)c(F)cc1Nc1nc(N(C)C)c2c(-c3cccc(NC(=O)Nc4cc(C(C)(C)C)nn4-c4ccc(C)cc4)c3)c[nH]c2n1 [compound 36, 1-(3-(tert-butyl)-1-(p-tolyl)-1H-pyrazol-5-yl)-3-(3-(4-(dimethylamino)-2-((5-fluoro-2-methoxy-4-(morpholine-4-carbonyl)phenyl)amino)-7H-pyrrolo[2,3-d]pyrimidin-5-yl)phenyl)urea] | 0.0 K
5 | COc1cc(C(=O)N2CCOCC2)c(F)cc1Nc1nc(N(C)C)c2c(Cl)c[nH]c2n1 [compound 33] | 16.0 K

Target: T1, LRRK2^KW
Assay: not given
Parameters: DSF thermal shift of purified LRRK2 KW construct with compound
Conditions: binder
Remark: another data set of the same source
Description: Additionally, we screened a library of published type-II inhibitors to identify those that bind to LRRK2^KW (a Kinase and WD40 domain construct of LRRK2) with high affinity. […] Next, we evaluated the potency and selectivity of these new compounds. We performed on-target screening by measuring the thermostability increase of LRRK2^KW in the presence of the new compounds using DSF (Supporting Information Table S2). We also determined the in vitro IC50 (median inhibitory concentration) values for each of the new compounds by purifying LRRK2^RCKW and measuring its kinase activity in the presence of our new inhibitors using the PhosphoSense® activity assay from AssayQuant (Supporting Information Table S2). Finally, we estimated the kinome selectivity of each compound by measuring the thermostability increase of approximately 100 representative kinases in the presence of the compounds via DSF (Supporting Information Table S2).

Row | SMILES | ∆Tm [K] | dTm LRRK2(KW)
6 | Cc1cn(-c2cc(NC(=O)c3ccc(C)c(Nc4ccc5n[nH]cc5c4)c3)cc(C(F)(F)F)c2)cn1 [compound 50, 3-((2H-indazol-5-yl)amino)-4-methyl-N-(3-(4-methyl-1H-imidazol-1-yl)-5-(trifluoromethyl)phenyl)benzamide] | 1.5 K | 
7 | Cc1ccc(-n2nc(C(C)(C)C)cc2NC(=O)Nc2cc(COc3cccnc3)[nH]n2)cc1 [PF-4618433] |  | 11 K
8 | Cc1ccc(C(=O)Nc2cccc(C(F)(F)F)c2)cc1Nc1nc(-c2cccnc2)nc2c1cnn2C [NVP-BHG712] |  | -0.5 K
9 | CC1(C)CNc2cc(NC(=O)c3cccnc3NCc3ccncc3)ccc21 [Motesanib] |  | -0.5 K
10 | Cc1ccc(NC(=O)c2cccc(N(C)C)c2)cc1NC(=O)c1ccc(O)cc1 [ZM336372] |  | -1 K
11 | N#CC1(c2ccc(NC(=O)c3cccnc3NCc3ccncc3)cc2)CCCC1 [Apatinib] |  | -1 K
12 | COc1cc2c(Nc3ccc(NC(=O)c4ccccc4)cc3)ncnc2cc1OCCCN1CCOCC1 [ZM447439] |  | 6.5 K
13 | NC(=O)C1(C(=O)N(c2ccc(F)cc2)c2ccc(Oc3ccc4n[nH]cc4c3)cc2)CC1 [compound 48, N-(4-((2H-indazol-5-yl)oxy)phenyl)-N-(4-fluorophenyl)cyclopropane-1,1-dicarboxamide] | 1.0 K | 
14 | NC(=O)C1(C(=O)N(c2ccc(F)cc2)c2ccc3cn[nH]c3c2)CC1 [compound 51, N-(4-fluorophenyl)-N-(1H-indazol-6-yl)cyclopropane-1,1-dicarboxamide] | 1.0 K | 
15 | CNC(=O)c1cc(Oc2ccc(NC(=O)Nc3ccc(Cl)c(C(F)(F)F)c3)c(F)c2)ccn1 [Regorafinib] |  | 5.5 K
16 | Cc1cn(-c2cc(NC(=O)c3ccc(C)c(Nc4nccc(-c5cccnc5)n4)c3)cc(C(F)(F)F)c2)cn1 [Nilotinib] |  | -2.5 K
17 | Cc1ccc(NC(=O)c2cccc(C(C)(C)C#N)c2)cc1Nc1ccc2ncn(C)c(=O)c2c1 [AZ 628] |  | -0.5 K
18 | NC(=O)C1(C(=O)N(c2ccc(F)cc2)c2ccc(Nc3ccc4n[nH]cc4c3)cc2)CC1 [compound 49, N-(4-((2H-indazol-5-yl)amino)phenyl)-N-(4-fluorophenyl)cyclopropane-1,1-dicarboxamide] | 2.0 K | 
19 | CCN1CCN(Cc2ccc(NC(=O)c3ccc(C)c(NC(=O)c4cncc(-c5cccs5)c4)c3)cc2C(F)(F)F)CC1 [ALW-II-41-27] |  | -0.5 K
20 | COc1cc(Oc2ccnc3cc(OC)c(OC)cc23)ccc1NC(=O)NC(C)c1nccs1 (stereo not drawn) [KI20227] |  | 3 K

Target: T2, leucine-rich repeat kinase 2 (LRRK2) (Homo sapiens, UniProt Q5S007)
T2 construct: LRRK2^RCKW (ROC, COR, Kinase, WD40)
T2 sequence (Q5S007 1327-2527 limits assumed): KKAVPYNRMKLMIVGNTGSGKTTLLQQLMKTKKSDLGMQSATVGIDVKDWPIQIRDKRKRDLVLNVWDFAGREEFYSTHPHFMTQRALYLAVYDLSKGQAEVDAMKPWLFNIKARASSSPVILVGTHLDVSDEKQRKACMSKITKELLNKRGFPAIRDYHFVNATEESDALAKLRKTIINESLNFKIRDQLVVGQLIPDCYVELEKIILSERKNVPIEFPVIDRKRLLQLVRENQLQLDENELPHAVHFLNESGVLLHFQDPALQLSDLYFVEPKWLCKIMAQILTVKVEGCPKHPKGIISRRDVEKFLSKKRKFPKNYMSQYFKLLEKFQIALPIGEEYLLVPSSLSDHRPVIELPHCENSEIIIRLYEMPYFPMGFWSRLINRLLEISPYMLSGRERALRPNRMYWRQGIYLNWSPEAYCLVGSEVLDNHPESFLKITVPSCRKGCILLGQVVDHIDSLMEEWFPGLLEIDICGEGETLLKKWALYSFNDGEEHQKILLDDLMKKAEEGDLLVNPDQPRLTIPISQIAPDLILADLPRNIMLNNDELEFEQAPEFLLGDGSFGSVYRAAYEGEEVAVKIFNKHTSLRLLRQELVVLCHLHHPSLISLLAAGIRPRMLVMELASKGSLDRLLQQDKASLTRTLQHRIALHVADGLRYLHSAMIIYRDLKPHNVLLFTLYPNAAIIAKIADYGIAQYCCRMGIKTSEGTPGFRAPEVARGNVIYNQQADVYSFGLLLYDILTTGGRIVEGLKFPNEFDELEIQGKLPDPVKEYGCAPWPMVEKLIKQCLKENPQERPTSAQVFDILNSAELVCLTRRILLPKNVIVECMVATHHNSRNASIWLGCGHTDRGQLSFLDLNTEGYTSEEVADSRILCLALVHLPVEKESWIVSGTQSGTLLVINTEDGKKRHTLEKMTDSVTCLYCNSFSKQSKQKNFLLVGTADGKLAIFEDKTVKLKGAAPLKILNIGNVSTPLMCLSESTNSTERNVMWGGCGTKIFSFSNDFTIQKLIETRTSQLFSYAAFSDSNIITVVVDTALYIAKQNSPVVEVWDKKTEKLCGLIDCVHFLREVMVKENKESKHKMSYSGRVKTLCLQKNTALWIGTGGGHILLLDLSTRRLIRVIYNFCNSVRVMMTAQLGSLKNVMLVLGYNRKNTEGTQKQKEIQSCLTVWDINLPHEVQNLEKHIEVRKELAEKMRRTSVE
Assay: biochemical
Parameters: PhosphoSense (AssayQuant) kinase activity assay with purified LRRK2 RCKW
Conditions: not given
Description: Next, we evaluated the potency and selectivity of these new compounds. We performed on-target screening by measuring the thermostability increase of LRRK2^KW in the presence of the new compounds using DSF (Supporting Information Table S2). We also determined the in vitro IC50 (median inhibitory concentration) values for each of the new compounds by purifying LRRK2^RCKW and measuring its kinase activity in the presence of our new inhibitors using the PhosphoSense® activity assay from AssayQuant (Supporting Information Table S2). Finally, we estimated the kinome selectivity of each compound by measuring the thermostability increase of approximately 100 representative kinases in the presence of the compounds via DSF (Supporting Information Table S2).

Row | SMILES | IC50
21 | Cn1cc(N(C(=O)C2(C(N)=O)CC2)c2cccc(-c3c[nH]c4ncnc(N5CCOCC5)c34)c2)cn1 [compound 9, N-(1-methyl-1H-pyrazol-4-yl)-N-(3-(4-morpholino-7H-pyrrolo[2,3-d]pyrimidin-5-yl)phenyl)cyclopropane-1,1-dicarboxamide] | 2.11 ± 1.19 µM
22 | Cc1ccc(N(C(=O)C2(C(N)=O)CC2)c2ccc(F)cc2)cc1-c1c[nH]c2ncnc(N3CCOCC3)c12 [compound 5, N-(4-fluorophenyl)-N-(4-methyl-3-(4-morpholino-7H-pyrrolo[2,3-d]pyrimidin-5-yl)phenyl)cyclopropane-1,1-dicarboxamide] | 9.58 ± 0.565 µM
23 | NC(=O)C1(C(=O)N(c2ccc(F)cc2)c2cccc(-c3c[nH]c4ncnc(N5CCOCC5)c34)c2)CCCC1 [compound 3, N-(4-fluorophenyl)-N-(3-(4-morpholino-7H-pyrrolo[2,3-d]pyrimidin-5-yl)phenyl)cyclopentane-1,1-dicarboxamide] | 0.694 ± 0.001 µM
24 | Cc1ccc(-c2c[nH]c3ncnc(N4CCOCC4)c23)cc1N(C(=O)C1(C(N)=O)CC1)c1ccc(F)cc1 [compound 7, N-(4-fluorophenyl)-N-(2-methyl-5-(4-morpholino-7H-pyrrolo[2,3-d]pyrimidin-5-yl)phenyl)cyclopropane-1,1-dicarboxamide] | 10.5 ± 1.02 µM
25 | Cc1cc(-c2c[nH]c3ncnc(N4CCOCC4)c23)cc(N(C(=O)C2(C(N)=O)CC2)c2ccc(F)cc2)c1 [compound 6, N-(4-fluorophenyl)-N-(3-methyl-5-(4-morpholino-7H-pyrrolo[2,3-d]pyrimidin-5-yl)phenyl)cyclopropane-1,1-dicarboxamide] | 2.15 ± 0.076 µM
26 | NC(=O)C1(C(=O)N(c2ccc(F)cc2)c2cccc(-c3c[nH]c4ncnc(N5CCOCC5)c34)c2)CC1 [compound 2, N-(4-fluorophenyl)-N-(3-(4-morpholino-7H-pyrrolo[2,3-d]pyrimidin-5-yl)phenyl)cyclopropane-1,1-dicarboxamide] | 0.185 ± 0.01 µM

Same assay, conditions: read-out: IC50 (cells in μM)

Row | SMILES | IC50
27 | Cc1cn(-c2cc(NC(=O)c3ccc(C)c(Nc4ccc5n[nH]cc5c4)c3)cc(C(F)(F)F)c2)cn1 [compound 50, 3-((2H-indazol-5-yl)amino)-4-methyl-N-(3-(4-methyl-1H-imidazol-1-yl)-5-(trifluoromethyl)phenyl)benzamide] | > 15 µM
28 | NC(=O)C1(C(=O)N(c2ccc(F)cc2)c2ccc(Oc3ccc4n[nH]cc4c3)cc2)CC1 [compound 48, N-(4-((2H-indazol-5-yl)oxy)phenyl)-N-(4-fluorophenyl)cyclopropane-1,1-dicarboxamide] | > 15 µM
29 | NC(=O)C1(C(=O)N(c2ccc(F)cc2)c2ccc3cn[nH]c3c2)CC1 [compound 51, N-(4-fluorophenyl)-N-(1H-indazol-6-yl)cyclopropane-1,1-dicarboxamide] | > 15 µM
30 | NC(=O)C1(C(=O)N(c2ccc(F)cc2)c2ccc(Nc3ccc4n[nH]cc4c3)cc2)CC1 [compound 49, N-(4-((2H-indazol-5-yl)amino)phenyl)-N-(4-fluorophenyl)cyclopropane-1,1-dicarboxamide] | > 15 µM

Source: doi:10.1101/2024.09.17.613365, “Type-II kinase inhibitors that target Parkinson’s Disease-associated LRRK2” (bioRxiv, 2025)
